Entries after “also recorded” stand apart in the source; their conditions may differ.

Consider 7 compounds from patent US9516824B2, “Method for modulating the number of archesporial cells in a developing anther” (The Board of Trustees of the Leland Stanford Junior …, priority 2012, dated 2016).

The subject of data set [1] is maize anthers. Kind of data set: Oxygen tension / ROS manipulation of the tassel airspace (gas by hose or needle, chemical injection): locule cell counts and SPL/EN bilayer progression by confocal imaging. The conditions noted are these: for AR specification / AR cell counts compared to puncture controls: injected into tassel airspace: 1 mM H2O2, 10 mM KI, 200 μM PTIO, 48 h prior to dissection; for AR specification / AR cell counts compared to puncture controls / AR morphological differentiation / somatic bilayer formation / development: 100 μM L-NNA, 20 μM SNP; for peripheral counts compared to needle puncture control / total L2 counts compared to needle puncture control: injection of 1 mL of 1 mM H2O2 or 10 mM KI; for AR morphological differentiation: injected: 200 μM PTIO; for somatic bilayer formation / development: injected: 1 mM H2O2, 200 μM PTIO, compared to puncture control and untreated; for SPL/EN bilayer (somatic niche) formation: gas treatment by hose or needle, 24 or 48 h; for peripheral somatic cell counts: late stages after 48 hour gas exposure. Here is the method:
Fertile W23 inbred anthers were stained with propidium iodide and imaged in Z-stack using a Leica SP5 confocal microscope (6). The ontogeny of locular cell types was cataloged over ˜2.5 days as anthers grew in length from 100 to 300 μm. […] The morphological characteristics of pre-meiotic cells are well established (18).
N2 or O2 gas was administered through hoses threaded into the leaf whorl (FIG. 15B). […] Alternatively, nitrogen, oxygen, or compressed air (20% O2) were administered by connecting gas lines to a needle inserted into the tassel airspace (FIGS. 15, C and D). In all experiments, a low flow of gas was administered over a 24 (A619) or 48 hour period (W23). Total locule cells (FIGS. 2, B, H, and M), peripheral somatic cells (FIGS. 2, C, I, and N), and central AR cells (FIGS. 2, D, J, and O) were quantified.
Confocal imaging, and EdU and PI staining were performed as described previously (6). Oxygen probe was an Oxygraph Tx3 (NTH-Pst1-L5-NS40-0.8-YOP) obtained from Presens (Regensburg, Germany). All chemicals were obtained from Sigma Chemical Co. (St. Louis, Mo.) and dissolved in water at the indicated molarities and injected using a 26 gauge needle into the airspace surrounding the immature tassel.

Data set [2] deals with maize anthers. Description: Ectopic archesporial (AR) cell formation after reducing or oxidizing treatments. The format is in vivo. The conditions noted are these: for ectopic AR location by CT: internal (near or in the CT and VT); for # having ectopic AR: number of anthers; for ectopic AR location by EPI: superficial (near or on the EPI).
The mark [3] stands for this setting: fertile genotype, listed as O2 (direct).
Setting [4] is: fertile genotype, listed as O2 (hose).
[5] abbreviates: fertile, needle trial, 48 h gas treatment.
Setting [6] is: fertile genotype, listed as N2 (direct).
Setting [7] is: fertile genotype, listed as N2 (hose).

Take `[I-].[K+]` [KI]: in the data set with maize anthers [1] (10 mM KI injected), the “AR:total L2 ratios” value is reported as “increased AR:total L2 ratios”. Moreover, in the data set with maize anthers [1] (fertile genotype), the “AR count (treatment effect)” value is on record as “extra” and the “SPL/EN timing (treatment effect)” value is given as “early”. Moreover, in the data set with maize anthers [1], the “AR specification / AR cell counts compared to puncture controls” value is “dramatically promoted AR specification”, the “peripheral counts compared to needle puncture control” value was “did not alter” and the “total L2 counts compared to needle puncture control” value is listed as “did not alter”. Besides, the “AR count (treatment effect)” value in the data set with maize anthers [1] (mac1 genotype) is listed as “extra”. For the same compound, the “AR count (treatment effect)” value in the data set with maize anthers [1] (msca1 genotype) is “extra”. Further, in the data set on maize anthers [2] (fertile genotype), the “AR per event (average count of ectopic AR cells in each instance)” value (“AR per event” for short) turned out to be 7, the “ectopic AR location by CT” value is given as 0, the “# having ectopic AR” value turned out to be 2 and the “ectopic AR location by EPI” value turned out to be 2. For the same compound, in the data set with maize anthers [2] (mac1 genotype), the “# having ectopic AR” value was determined as 0 and the “ectopic AR location by EPI” value came to 0. The “AR specification in msca1 anthers” value with maize anthers [2] is given as “caused AR specification”. For the same compound, in the data set on maize anthers [2] (msca1 genotype), the “AR per event” value is recorded as 3, the “# having ectopic AR” value stood at 6 and the “ectopic AR location by EPI” value was 5. In the data set with maize anthers [2] (msca1 mutant, 20 μM SNP or KI injected), the “percent of treated anthers having AR cells” value stood at 9.5%.
Take `CC1(C)N([O])C(c2ccccc2)=[N+]([O-])C1(C)C` [PTIO, 2-Phenyl-4,4,5,5-tetramethylimidazoline-1-oxyl-3-oxide]: in the data set on maize anthers [1] (fertile genotype), the “AR count (treatment effect)” value is recorded as “fewer” and the “SPL/EN timing (treatment effect)” value is listed as “delayed”. In addition, in the data set on maize anthers [1], the “AR specification / AR cell counts compared to puncture controls” value is recorded as “slightly repressed; also recorded: slightly suppressed AR counts”, the AR morphological differentiation result is recorded as “slowed the morphological differentiation of central AR cells; also recorded: delayed AR morphological differentiation” and the “somatic bilayer formation / development” value is recorded as “dramatically delayed”. Besides, in the data set on maize anthers [1] (mac1 genotype), the “AR count (treatment effect)” value is “extra”. Further, in the data set with maize anthers [2] (fertile genotype), the “AR per event” value worked out at 5, the “niche - forming (periclinal divisions generating EN/SPL-like bilayer around ectopic AR)” value (shortened to “niche - forming”) is reported as “yes”, the “ectopic AR location by CT” value amounted to 3 and the “# having ectopic AR” value is recorded as 4. Moreover, in the data set on maize anthers [2] (fertile genotype), the “ectopic AR location by EPI” value came to 1. Further, in the data set on maize anthers [2] (mac1 genotype), the “ectopic AR location by CT” value amounted to 0, the “# having ectopic AR” value is on record as 0 and the “ectopic AR location by EPI” value is reported as 0. For the same compound, the “AR specification in msca1 anthers” value in the data set with maize anthers [2] is recorded as “lacked AR”. Moreover, in the data set on maize anthers [2] (msca1 genotype), the “ectopic AR location by CT” value is 0, the “# having ectopic AR” value came to 0 and the “ectopic AR location by EPI” value was 0.
With `O=O` [O2, oxygen], the “AR count (treatment effect)” value in the data set with maize anthers [1] (setting [3]) was “extra”; in the data set with maize anthers [1] (setting [4]), “fewer”; in the data set with maize anthers [1] (mac1 genotype), “extra”; in the data set on maize anthers [1] (msca1 genotype), “none”. Also, the “SPL/EN timing (treatment effect)” value is on record as “delayed” in the data set with maize anthers [1] (setting [3]) and “late” in the data set with maize anthers [1] (setting [4]). In the data set with maize anthers [1] (fertile), the “SPL/EN bilayer (somatic niche) formation” value was “delayed”. Moreover, in the data set with maize anthers [1] (fertile, hose gas treatment), the AR specification entry was “repressed AR specification”. The AR counts result with maize anthers [1] (fertile, hose, 24 hour exposure) is “significantly fewer AR than either untreated or N2”; in the data set on maize anthers [1] (setting [5]) it was “elevated in the needle trial, less than compressed air and dramatically less than nitrogen”. Moreover, the “central AR counts” value in the data set on maize anthers [1] (fertile, hose, 48 hour treatment) was “far lower than N2”. In addition, the “peripheral somatic cell counts” value in the data set on maize anthers [1] (fertile) was “increased peripheral somatic cells in the late stages”. Besides, the “AR per event” value in the data set on maize anthers [2] (fertile genotype) is given as 3.7. Besides, in the data set with maize anthers [2] (fertile genotype), the “niche - forming” value is “~half”. Moreover, the “ectopic AR location by CT” value in the data set with maize anthers [2] (setting [3]) was found to be 12; in the data set on maize anthers [2] (setting [4]) it was 0; in the data set with maize anthers [2] (mac1 genotype) it was 0; in the data set on maize anthers [2] (msca1 genotype) it was 0. The “# having ectopic AR” value with maize anthers [2] (setting [3]) is reported as 18; in the data set with maize anthers [2] (setting [4]), 0; in the data set with maize anthers [2] (mac1 genotype) it was 0; with maize anthers [2] (msca1 genotype) it was 0. In addition, the “ectopic AR location by EPI” value was 6 with maize anthers [2] (setting [3]), 0 in the data set with maize anthers [2] (setting [4]), 0 in the data set with maize anthers [2] (mac1 genotype) and 0 in the data set on maize anthers [2] (msca1 genotype).
Take `N#N` [N2, nitrogen]: the “AR count (treatment effect)” value was “extra” in the data set with maize anthers [1] (fertile genotype), “extra” in the data set on maize anthers [1] (mac1 genotype) and “none” with maize anthers [1] (msca1 genotype). Moreover, the “SPL/EN timing (treatment effect)” value in the data set with maize anthers [1] (fertile genotype) was “early”. The “AR specification and AR cell counts compared to untreated fertile anthers” value with maize anthers [1] (fertile, all three gas protocols (hose 48 h W23, hose 24 h A619, needle)) was “early specification and excess AR cells”. Also, in the data set with maize anthers [1] (fertile, gas treatment), the “AR:total L2 ratio” value is reported as “elevated ratios”. For the same compound, in the data set with maize anthers [1] (fertile), the “SPL/EN bilayer (somatic niche) formation” value is on record as “formed early; also recorded: precocious bilayer formation”. The “central AR as fraction of total L2 cells” value in the data set on maize anthers [1] (fertile, gas treatment, early stages) is “up to 25%”. Further, in the data set with maize anthers [1] (fertile), the “peripheral somatic cell counts” value was “increased peripheral somatic cell counts”. In the data set with maize anthers [1] (setting [5]), the AR counts result is given as “Excess presumptive AR cells”. Also, the “AR per event” value with maize anthers [2] (fertile genotype) is recorded as 5; with maize anthers [2] (mac1 genotype) it was 3. Moreover, the figures for the “ectopic AR location by CT” value with maize anthers [2] (fertile genotype), in the data set on maize anthers [2] (mac1 genotype) and in the data set on maize anthers [2] (msca1 genotype) were 0, 2 and 0, respectively. Further, the “# having ectopic AR” value is 4 in the data set with maize anthers [2] (setting [6]), 0 with maize anthers [2] (setting [7]), 7 in the data set with maize anthers [2] (mac1 genotype) and 0 in the data set with maize anthers [2] (msca1 genotype). In addition, the “ectopic AR location by EPI” value in the data set on maize anthers [2] (setting [6]) amounted to 4; in the data set on maize anthers [2] (setting [7]), 0; in the data set with maize anthers [2] (mac1 genotype), 5; with maize anthers [2] (msca1 genotype) it was 0. Besides, the “ectopic AR formation” value with maize anthers [2] (hose protocol) is reported as “did not cause ectopic AR in any anthers”.
On to `c1ccc2c(c1)[I+]c1ccccc1-2` [DPI, Diphenylene iodonium], for which the “effect on tassel tissues” value with maize anthers [1] (injected into tassel airspace) is recorded as “complete degeneration of the tassel tissues”.
In the case of `OO` [H2O2, hydrogen peroxide], in the data set with maize anthers [1] (fertile genotype), the “AR count (treatment effect)” value is given as “fewer” and the “SPL/EN timing (treatment effect)” value is “delayed”. Also, in the data set with maize anthers [1], the “AR specification / AR cell counts compared to puncture controls” value is “lowered AR cell counts”, the “somatic bilayer formation / development” value is reported as “inhibited subsequent somatic bilayer formation”, the “peripheral counts compared to needle puncture control” value is “greatly reduced” and the “total L2 counts compared to needle puncture control” value was “greatly reduced”. Besides, the “AR count (treatment effect)” value with maize anthers [1] (mac1 genotype) is recorded as “extra”. Moreover, in the data set on maize anthers [2] (fertile genotype), the “ectopic AR location by CT” value is recorded as 0, the “# having ectopic AR” value is listed as 0 and the “ectopic AR location by EPI” value is listed as 0. In addition, in the data set on maize anthers [2] (mac1 genotype), the “ectopic AR location by CT” value turned out to be 0, the “# having ectopic AR” value was found to be 0 and the “ectopic AR location by EPI” value came to 0. In addition, the “AR specification in msca1 anthers” value in the data set with maize anthers [2] is reported as “lacked AR”. In the data set on maize anthers [2] (msca1 genotype), the “AR per event” value stood at 2, the “niche - forming” value is “yes”, the “ectopic AR location by CT” value is 0 and the “# having ectopic AR” value is 0. Moreover, the “ectopic AR location by EPI” value in the data set on maize anthers [2] (msca1 genotype) is reported as 0.
As to `N=C(NCCC[C@H](N)C(=O)O)N[N+](=O)[O-]` [L-NNA, N^G-nitro-L-Arginine], in the data set on maize anthers [1] (fertile genotype), the “AR count (treatment effect)” value is on record as “fewer” and the “SPL/EN timing (treatment effect)” value is listed as “delayed”. In the data set with maize anthers [1], the “AR specification / AR cell counts compared to puncture controls” value is given as “slightly repressed; also recorded: slightly suppressed AR counts”, the AR morphological differentiation result was “slowed the morphological differentiation of central AR cells; also recorded: delayed AR morphological differentiation” and the “somatic bilayer formation / development” value is recorded as “dramatically delayed”. For the same compound, the “AR count (treatment effect)” value in the data set with maize anthers [1] (mac1 genotype) is reported as “extra”. In the data set with maize anthers [2] (fertile genotype), the “AR per event” value was 2, the “niche - forming” value is on record as “yes”, the “ectopic AR location by CT” value came to 1 and the “# having ectopic AR” value was found to be 1. In addition, the “ectopic AR location by EPI” value in the data set on maize anthers [2] (fertile genotype) turned out to be 0. In the data set with maize anthers [2] (mac1 genotype), the “ectopic AR location by CT” value came out at 0, the “# having ectopic AR” value is 0 and the “ectopic AR location by EPI” value was determined as 0. Moreover, the “AR specification in msca1 anthers” value with maize anthers [2] was “lacked AR”. Also, in the data set on maize anthers [2] (msca1 genotype), the “ectopic AR location by CT” value was found to be 0, the “# having ectopic AR” value is listed as 0 and the “ectopic AR location by EPI” value is 0.
